Measurements from patent US20260152527A1, “NOVEL MELANOCORTIN ANALOGS” (priority 2022, published 2026).
In brackets after ≈: the same amount, converted by molar mass. Read-outs that look alike come from different tables or passages of the source. Positions of bridges follow the written chain, without caps; N, C: chain ends. Non-standard residues stand in square brackets, D forms with d. Residues, ends and D or L forms follow the SMILES beside them. Triazole bridges read from a SMILES are 1,4-linked. *: point of attachment. Benzoyl(3,5-(OH)2) = O=C(c1cc(O)cc(O)c1)*; Lys(N3) = [N-]=[N+]=NCCCC[C@H](N)C(=O)O; dPhe(4-F) = N[C@H](Cc1ccc(F)cc1)C(=O)O; Nle = CCCC[C@H](N)C(=O)O; Pra = C#CC[C@H](N)C(=O)O

How the values were obtained:
[1] = molecular target: T1, human recombinant MC1R (Homo sapiens, UniProt Q01726); assay: cyclic AMP (cAMP) functional assay, MC1R stable cell line (CHO-K1); type: cell-based;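 also: cells with test compound for 60 min at room temperature in buffer containing IBMX, then cAMP quantified by Eu-cAMP tracer and ULight anti-cAMP detection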
T1 construct: host or cells: CHO-K1

[2] = Thermodynamic solubility study in water; type: physicochemical; settings: Table 8; read-out: Solubility
Description: The study was conducted in water. Water was added into compound powder to make a 10 mg/mL solution. Sample tubes were shaken at the vibrator for 1 hour (1000 rpm) and then equilibrated overnight at room temperature. Samples were centrifuged at 12000 rpm for 10 min to precipitate undissolved particles. Supernatants were transferred from tubes to a new plate. An aliquot of the supernatant after centrifugation was taken from each well, then analyzed by LC-MS/MS. The concentration of the supernatants was quantified by a standard curve.

[3] = In vivo topical administration pharmacokinetics of K173, rabbit (aqueous humor, cornea); settings: for level at 0.5 h / level at 1 h / level at 2 h / level at 4 h / level at 8 h / level at 24 h: aqueous humor, topical or ocular; for level at 0.5 h: 30 Min post-last dose; for level at 1 h: 1 hr post-last dose; for level at 2 h: 2 hr post-last dose; for level at 4 h: 4 hr post-last dose; for level at 8 h: 8 hr post-last dose; for level at 24 h: 24 hr post-last dose
Description: Animals were not tranquilized for the examinations.
The remaining ocular tissues were discarded. Ocular samples were stored −80° C.
The rabbit efficacy model can be used to determine if QD or BID dosing is optimal for clinical utility.

[4] = molecular target: T2, human recombinant MC4R (Homo sapiens, UniProt P32245); assay: Ca2+ signalling functional assay, MC4R stable cell line (CHO-K1/Gα15); type: cell-based
T2 construct: host or cells: CHO-K1/Gα15
Description: The Ca^2+ signalling functional assay was performed on a human recombinant MC4R stable cell line (CHO-K1/Gα15, GenScript). The cells were cultured at 37° C. and 5% CO2 with culture medium (90% Ham's F-12K (Kaighn's)+10% FBS+8 μg/mL Puromycin+100 μg/mL Hygromycin B). Cells were washed with PBS and then detached by incubation with 0.05% (w/v) Trypsin EDTA at 37° C. for 2-5 mins. Detached cells were suspended in Ham's F-12K (Kaighn's) (containing 10% FBS) and a 50 μL cell suspension was seeded into each well of a 384-well assay plate at a density of 15,000 cells/well. Cells were allowed to settle overnight at 37° C., 5% CO2. The next day, the assay plate was centrifuged and the media was replaced with dye (1×) in assay buffer (containing HBSS, HEPES 20 mM and probenecid 1 mM) and incubated for 1 h at 37° C. […] Then, 100 nL of compounds were transferred to the compound plate by the Echo machine. 30 μL assay buffer was added to the compounds plate and then shaken for 20 to 40 minutes. The plates were placed on the FLIPR and 15 μL of the compound was added to each well, then calcium flux signal was measured.

[5] = 5 mg/ml solution, 35 L per eye, Group 1 (single dose), topical 5 mg/ml, OD, Mean, read-out: K173 Concentrations (ng/mL) in Rabbit Aqueous Humor OD Sample, Mean
[6] = 5 mg/ml solution, 35 L per eye, Group 1 (single dose), topical 5 mg/ml, OS, Mean, read-out: K173 Concentrations (ng/mL) in Rabbit Aqueous Humor OS Sample, Mean
[7] = 5 mg/ml solution, 35 L per eye, Group 2 (4 doses), topical 5 mg/ml, OD, Mean, read-out: K173 Concentrations (ng/mL) in Rabbit Aqueous Humor OD Sample, Mean
[8] = 5 mg/ml solution, 35 L per eye, Group 2 (4 doses), topical 5 mg/ml, OS, Mean, read-out: K173 Concentrations (ng/mL) in Rabbit Aqueous Humor OS Sample, Mean
[9] = 5 mg/ml solution, 35 L per eye, Group 3 (8 BID doses), topical 5 mg/ml, OD, Mean, read-out: K173 Concentrations (ng/mL) in Rabbit Aqueous Humor OD Sample, Mean
[10] = 5 mg/ml solution, 35 L per eye, Group 3 (8 BID doses), topical 5 mg/ml, OS, Mean, read-out: K173 Concentrations (ng/mL) in Rabbit Aqueous Humor OS Sample, Mean
[11] = 5 mg/ml, Group 1 (single dose), topical 5 mg/ml, OD, Mean, read-out: K173 Concentrations (ng/mL) in Rabbit Aqueous Humor OD Sample, Mean
[12] = 5 mg/ml, Group 1 (single dose), topical 5 mg/ml, OS, Mean, read-out: K173 Concentrations (ng/mL) in Rabbit Aqueous Humor OS Sample, Mean
[13] = 5 mg/ml, Group 1 (single dose), topical 5 mg/ml, OS, individual animals, read-out: K173 Concentrations (ng/mL) in Rabbit Aqueous Humor OS Sample
[14] = 5 mg/ml, Group 2 (4 doses), topical 5 mg/ml, OD, Mean, read-out: K173 Concentrations (ng/mL) in Rabbit Aqueous Humor OD Sample, Mean
[15] = 5 mg/ml, Group 2 (4 doses), topical 5 mg/ml, OS, Mean, read-out: K173 Concentrations (ng/mL) in Rabbit Aqueous Humor OS Sample, Mean
[16] = 5 mg/ml, Group 2 (4 doses), topical 5 mg/ml, OD, individual animals, read-out: K173 Concentrations (ng/mL) in Rabbit Aqueous Humor OD Sample
[17] = 5 mg/ml, Group 3 (8 BID doses), topical 5 mg/ml, OD, Mean, read-out: K173 Concentrations (ng/mL) in Rabbit Aqueous Humor OD Sample, Mean
[18] = 5 mg/ml, Group 3 (8 BID doses), topical 5 mg/ml, OS, Mean, read-out: K173 Concentrations (ng/mL) in Rabbit Aqueous Humor OS Sample, Mean

T1 sequence (Q01726 whole entry): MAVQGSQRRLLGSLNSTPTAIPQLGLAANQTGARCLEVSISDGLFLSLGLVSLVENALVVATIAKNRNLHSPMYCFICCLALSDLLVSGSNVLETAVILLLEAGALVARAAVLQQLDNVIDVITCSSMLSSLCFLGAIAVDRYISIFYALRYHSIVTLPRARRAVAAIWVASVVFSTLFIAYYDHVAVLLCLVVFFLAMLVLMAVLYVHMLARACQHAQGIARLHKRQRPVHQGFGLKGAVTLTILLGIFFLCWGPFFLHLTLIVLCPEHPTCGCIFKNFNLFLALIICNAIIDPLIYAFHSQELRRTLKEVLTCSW
T2 sequence (P32245 whole entry): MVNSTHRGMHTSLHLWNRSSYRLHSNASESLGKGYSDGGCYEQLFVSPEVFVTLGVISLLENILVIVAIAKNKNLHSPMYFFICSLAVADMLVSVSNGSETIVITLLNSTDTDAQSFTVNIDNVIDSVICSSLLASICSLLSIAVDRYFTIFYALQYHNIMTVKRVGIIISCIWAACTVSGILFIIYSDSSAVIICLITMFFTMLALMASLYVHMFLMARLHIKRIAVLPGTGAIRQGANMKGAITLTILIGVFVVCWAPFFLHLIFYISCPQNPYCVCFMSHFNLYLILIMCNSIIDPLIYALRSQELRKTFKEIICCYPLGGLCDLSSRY

`CCCC[C@H](NC(=O)c1cc(O)cc(O)c1)C(=O)N[C@H]1CCCCn2cc(nn2)C[C@@H](C(N)=O)NC(=O)[C@H](Cc2c[nH]c3ccccc23)NC(=O)[C@H](CCCNC(=N)N)NC(=O)[C@@H](Cc2ccc(F)cc2)NC(=O)[C@H](Cc2c[nH]cn2)NC1=O` [KR-072, HyBA-Nle-[Lys(N3)-His-Dphe(4-F)-Arg-Trp-Pra]-NH2] ({Benzoyl(3,5-(OH)2)}-[Nle][Lys(N3)]H[dPhe(4-F)]RW[Pra]-NH2; triazole 2-7) showed an EC50 [1] of 0.0019 nM, an IC50 ([1]; cAMP functional assay) of 1.9 pM and a solubility [2] of 6470 µg/mL (≈ 5.58 mM). For the same compound, the level at 0.5 h [3, 5] was 8.44 ng/mL, the level at 0.5 h [3, 6] was 1.36 ng/mL and the level at 1 h [3, 5] was 1.13 ng/mL. It also gave a level at 1 h [3, 6] of 5.22 ng/mL, a level at 0.5 h [3, 7] of 1.9 ng/mL and a level at 0.5 h [3, 8] of 3.47 ng/mL. It also gave a level at 1 h [3, 7] of 2.75 ng/mL, a level at 1 h [3, 8] of 2.49 ng/mL and a level at 2 h [3, 9] of 10.5 ng/mL. It also gave a level at 2 h [3, 10] of 12.1 ng/mL, a level at 4 h [3, 9] of 11.6 ng/mL and a level at 4 h [3, 10] of 7.33 ng/mL. For the same compound, the level at 8 h [3, 9] was 5.92 ng/mL, the level at 8 h [3, 10] was 6.42 ng/mL and the level at 24 h [3, 9] was 3.79 ng/mL. It also gave a level at 24 h [3, 10] of 4.45 ng/mL, a level at 2 h [3, 11] of 3.58 ng/mL and a level at 2 h [3, 12] of 1.89 ng/mL. The level at 4 h [3, 11] was 2.68 ng/mL, the level at 4 h ([3]; 5 mg/ml, Group 1 (single dose), topical 5 mg/ml, OD, individual animals, read-out: K173 Concentrations (ng/mL) in Rabbit Aqueous Humor OD Sample) was 2.94 ng/mL and the level at 4 h [3, 12] was 3.35 ng/mL. The level at 4 h [3, 13] was 3.56 ng/mL, the level at 8 h [3, 11] was 5.77 ng/mL and the level at 8 h [3, 12] was 4.2 ng/mL. For the same compound, the level at 8 h [3, 13] was 3.34 ng/mL, the level at 24 h [3, 11] was 3.22 ng/mL and the level at 24 h [3, 12] was 2.46 ng/mL. The level at 24 h [3, 13] was 2.34 ng/mL, the level at 2 h [3, 14] was 5.76 ng/mL and the level at 2 h [3, 15] was 7.84 ng/mL. For the same compound, the level at 4 h [3, 14] was 4.61 ng/mL, the level at 4 h [3, 15] was 3.86 ng/mL and the level at 8 h [3, 14] was 10.9 ng/mL. For the same compound, the level at 8 h [3, 16] was 11.3 ng/mL, the level at 8 h [3, 15] was 14.8 ng/mL and the level at 24 h [3, 14] was 1.98 ng/mL. The level at 24 h [3, 16] was 2.34 ng/mL, the level at 24 h [3, 15] was 2.33 ng/mL and the level at 24 h ([3]; 5 mg/ml, Group 2 (4 doses), topical 5 mg/ml, OS, individual animals, read-out: K173 Concentrations (ng/mL) in Rabbit Aqueous Humor OS Sample) was 2.3 ng/mL. The level at 0.5 h [3, 17] was 10.3 ng/mL, the level at 0.5 h [3, 18] was 8.11 ng/mL and the level at 1 h [3, 17] was 5 ng/mL. The level at 1 h ([3]; 5 mg/ml, Group 3 (8 BID doses), topical 5 mg/ml, OD, individual animals, read-out: K173 Concentrations (ng/mL) in Rabbit Aqueous Humor OD Sample) was 5.13 ng/mL, the level at 1 h [3, 18] was 6.56 ng/mL and the level at 1 h ([3]; 5 mg/ml, Group 3 (8 BID doses), topical 5 mg/ml, OS, individual animals, read-out: K173 Concentrations (ng/mL) in Rabbit Aqueous Humor OS Sample) was 7.48 ng/mL. The “Aqueous humor levels 24 hours after last dose” value ([3]; topical 5 mg/ml, all dose groups) was “measurable levels were detected after 24 hours in all dose groups”, the “ocular surface retention and Tmax” value ([3]; topical, after a single dose) was “prolonged ocular surface retention and Tmax” and the EC50 [4] was 98.6 nM.
